The results in this text go back to patent US10450293B2, “Chemokine CXCR4 and CCR5 receptor modulators and uses related thereto” (Emory University, priority 2014, dated 2019).

Where two headings read alike, the source gives them in different places.

For one data set, the system named is HIV-1 IIIB. Briefly: HIV-1 MAGI assay, IIIB (CXCR4 / T-tropic). It counts as cell-based. How it is done:
(§1) Bayesian statistical models were constructed using known CXCR4 and CCR5 active compounds from literature, and these models were used to virtually screen 5 million compounds in the Aldrich Marketplace Select library. The screen yielded 14 compounds of interest that were then tested for their anti-HIV activity for both tropisms in MAGI assay. Two compounds (FIG. 1, compounds 1 and 2) were active against both T and M tropic forms of HIV with IC50 values of ˜20 μM. These initial hits were followed-up by a second round of virtual screening based on similarity and sub-structure searching. Another 24 compounds were purchased from the same database and tested. […] This compound was then subjected to a series of biological evaluations to determine activity profile and confirm mechanism of action.

A further data set has as its system HIV-1 Ba-L. The data set can be described thus: HIV-1 MAGI assay, Ba-L (CCR5 / M-tropic). It counts as cell-based. The conditions noted are these: Human immunodeficiency virus 1, BAL. How it is done: as §1
Data set [1] has as its target HIV-1 reverse transcriptase (Human immunodeficiency virus type 1 group M subtype B, UniProt P03366). Briefly: biochemical. Type of data set: biochemical. The conditions noted are these: for IC50: read-out: RT IC50.
Another data set can be described thus: MAGI toxicity. The following applies: human, MAGI cells, TC50, table of synthesized compounds.
In the next data set the target is CXCR4 (Homo sapiens, UniProt P61073). Briefly: Nef-M1:CXCR4 induced mitochondrial membrane depolarization (MMD) inhibition in Jurkat cells. It counts as cell-based. Also noted: endogenous in cells; host or cells: Jurkat. The conditions noted are these: in words.
The next data set deals with T1, CCR5 (Homo sapiens, UniProt P51681).
T1 construct: expressed in transfected cells; host or cells: HeLa-C14
Briefly: HeLa-C14:JRFL CD4-dependent cell-cell fusion assay. The following applies: luciferase readout, in words. Type of data set: cell-based. The source says:
Cell-cell fusion assays measure specifically co-receptor mediated inhibition of gp120-induced fusion in the absence of other viral machinery, and these assays were used to explore the CCR5- and CXCR4-specific antiviral activity. A cell-cell fusion assay was constructed to simulate HIV-1 entry in the absence of other viral machinery. The assay measured fusion of effector cells expressing the JRFL envelope (CCR5-tropic/CD4 dependent) with HeLa-C14 target cells (expressing CD4, CCR5, and CXCR4) using a luciferase readout (FIG. 5A).

The mark [2] stands for this setting: Human immunodeficiency virus 1, IIIB, MAGI, Table 3, read-out: MAGI Assay IC50 CXCR4.
[3] abbreviates: Table 3, read-out: MAGI Assay IC50 CCR5.
Setting [4] is: Human immunodeficiency virus 1, IIIB, MAGI, table of synthesized compounds, read-out: X4-IC50.
The mark [5] stands for this setting: table of synthesized compounds, read-out: R5-IC50.

Chain of CXCR4 (P61073 whole entry): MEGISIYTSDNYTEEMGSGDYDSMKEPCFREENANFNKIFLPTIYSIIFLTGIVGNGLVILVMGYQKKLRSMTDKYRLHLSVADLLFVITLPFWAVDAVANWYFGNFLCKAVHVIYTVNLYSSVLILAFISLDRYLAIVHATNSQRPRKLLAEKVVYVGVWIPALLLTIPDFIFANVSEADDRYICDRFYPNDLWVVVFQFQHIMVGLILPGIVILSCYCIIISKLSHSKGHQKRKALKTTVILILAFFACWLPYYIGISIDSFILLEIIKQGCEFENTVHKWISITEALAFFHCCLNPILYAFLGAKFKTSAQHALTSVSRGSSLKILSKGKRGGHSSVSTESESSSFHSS
T1 sequence (P51681 whole entry): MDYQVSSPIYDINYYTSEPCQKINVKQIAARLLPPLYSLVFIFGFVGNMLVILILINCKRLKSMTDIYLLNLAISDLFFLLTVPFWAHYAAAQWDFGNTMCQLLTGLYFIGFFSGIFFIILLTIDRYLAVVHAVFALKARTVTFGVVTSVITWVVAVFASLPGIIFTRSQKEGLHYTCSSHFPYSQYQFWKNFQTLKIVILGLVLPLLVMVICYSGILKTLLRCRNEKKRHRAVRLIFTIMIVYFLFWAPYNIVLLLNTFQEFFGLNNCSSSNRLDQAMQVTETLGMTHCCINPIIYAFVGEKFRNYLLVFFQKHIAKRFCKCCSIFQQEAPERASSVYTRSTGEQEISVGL

For orientation: IC50 means the concentration at which inhibition is half-maximal. Turning to `Fc1cc(CN2CCC(c3[nH]ncc3Cc3ccccc3)CC2)ccn1`, the IC50 in the data set on HIV-1 IIIB (setting [2]) is above 10 µM; with HIV-1 Ba-L (setting [3]) it was 10 µM; in data set [1] (Table 3), 10 µM.
For `CS(=O)(=O)c1cc(CN2CCC(c3[nH]ncc3Cc3ccccc3)CC2)ccn1`, the IC50 with HIV-1 IIIB (setting [2]) is 0.4 µM; with HIV-1 Ba-L (setting [3]) it was 0.6 µM; in data set [1] (Table 3), 4 µM.
As to `c1ccc(Cc2cn[nH]c2C2CCN(Cc3ccncn3)CC2)cc1`, the IC50 in the data set with HIV-1 IIIB (setting [2]) was above 100 µM; with HIV-1 Ba-L (setting [3]), 20 µM; in data set [1] (Table 3) it was 146 µM.
The matching figures for `N#Cc1ccc(CN2CCC(c3[nH]ncc3Cc3ccccc3)CC2)nc1`: above 100 µM, 43 µM and 211 µM.
For `CN(C)c1ccc(CN2CCC(c3[nH]ncc3Cc3ccccc3)CC2)cc1`, the “MAGI Assay IC50 CXCR4” value in the data set on HIV-1 IIIB (Table 3) is “inactive”. The IC50 in the data set with HIV-1 Ba-L (setting [3]) worked out at 5 µM. The “RT IC50” value in data set [1] (Table 3) is “inactive”.
Turning to `COc1cccc(CN2CCC(c3[nH]ncc3Cc3ccccc3)CC2)c1Cl`, the values for the IC50 (with HIV-1 IIIB (setting [2]); in the data set with HIV-1 Ba-L (setting [3]); in data set [1] (Table 3)) were 2 µM, 1 µM and 1.5 µM, respectively.
Turning to `c1ccc(Cc2cn[nH]c2C2CCN(Cc3ccnc4ccccc34)CC2)cc1`, the values for the IC50 (in the data set with HIV-1 IIIB (setting [2]); in the data set with HIV-1 Ba-L (setting [3]); in data set [1] (Table 3)) were 1 µM, 0.8 µM and 3 µM, respectively.
For `Clc1nccc(CN2CCC(c3[nH]ncc3Cc3ccccc3)CC2)c1Cl`, the values for the IC50 (in the data set on HIV-1 IIIB (setting [2]); with HIV-1 Ba-L (setting [3]); in data set [1] (Table 3)) were 1.5 µM, 0.8 µM and 4 µM, respectively.
Regarding `[O-][n+]1ccc(CN2CCC(c3[nH]ncc3Cc3ccccc3)CC2)cc1`, the half-maximal inhibitory concentration (IC50) (with HIV-1 IIIB (setting [2]); in the data set on HIV-1 Ba-L (setting [3]); in data set [1] (Table 3)) was above 100 µM throughout.
Take `Cc1n[nH]c(C2CCN(Cc3ccncc3Cl)CC2)c1Cc1ccccc1`: the inhibition at 1 µM in the data set on HIV-1 IIIB (Human immunodeficiency virus 1, IIIB, MAGI, @ 1 uM, read-out: MAGI Assay % inhib CXCR4) worked out at 79%; in the data set with HIV-1 Ba-L (@ 1 uM, read-out: MAGI Assay % inhib CCR5) it was 92%. Further, in data set [1] (@ 100 uM, read-out: % Activity of RT), the activity at 100 µM came to 4%.
What is called CC50 is the concentration at which the toxic effect on the cells reaches its halfway point. A high value points to better tolerance by the cells. With `c1ccc(CCCC2CCN(Cc3ccccn3)CC2)cc1`, the IC50 in the data set with HIV-1 IIIB (setting [4]) is 137 µM; in the data set on HIV-1 Ba-L (setting [5]) it was 73.5 µM. In addition, in the data set “MAGI toxicity”, the CC50 is above 100 µM.
The matching figures for `c1ccc(Cc2cn[nH]c2C2CCN(Cc3ccccc3)CC2)cc1` [1-benzyl-4-(4-benzyl-1H-pyrazol-3-yl)piperidine]: 13 µM, 18.1 µM and above 100 µM.
For the compound `c1ccc(Cc2cn[nH]c2C2CCN(Cc3ccccn3)CC2)cc1` [2-((4-(4-benzyl-1H-pyrazol-3-yl)piperidin-1-yl)methyl)pyridine], the IC50 in the data set with HIV-1 IIIB (setting [4]) stood at 24.8 µM; in the data set on HIV-1 Ba-L (setting [5]), 16.7 µM. The compound further yielded a CC50 in “MAGI toxicity” above 100 µM.
The matching figures for `FC(F)(F)c1ccc(CN2CCC(c3[nH]ncc3Cc3ccccc3)CC2)cc1` [4-(4-benzyl-1H-pyrazol-3-yl)-1-(4 (trifluoromethyl)benzyl)piperidine]: 13.2 µM, 9.72 µM and 18 µM.
`CS(=O)(=O)c1ccc(CN2CCC(c3[nH]ncc3Cc3ccccc3)CC2)cc1` [4-(4-benzyl-1H-pyrazol-3-yl)-1-(4-(methylsulfonyl)benzyl)piperidine]: the IC50 came out at 1 µM with HIV-1 IIIB (setting [4]) and 2 µM in the data set with HIV-1 Ba-L (setting [5]). In addition, the 50% cytotoxic concentration (CC50) in “MAGI toxicity” was above 100 µM.
The matching figures for `Clc1ccc(CN2CCC(c3[nH]ncc3Cc3ccccc3)CC2)cc1` [4-(4-benzyl-1H-pyrazol-3-yl)-1-(4-chlorobenzyl)piperidine]: 5.33 µM, 5.61 µM and 18.6 µM.
On to `c1ccc(Cc2cn[nH]c2C2CCN(CC3CCCCC3)CC2)cc1` [4-(4-benzyl-1H-pyrazol-3-yl)-1-(cyclohexylmethyl)piperidine], for which the IC50 stood at 58.5 µM with HIV-1 IIIB (setting [4]) and 49.4 µM with HIV-1 Ba-L (setting [5]). The CC50 in the data set “MAGI toxicity” was determined as 142 µM.
The matching figures for `N#Cc1ccc(CN2CCC(c3[nH]ncc3Cc3ccccc3)CC2)cc1` [4-((4-(4-benzyl-1H-pyrazol-3-yl)piperidin-1-yl)methyl)benzonitrile]: 5.3 µM, 8.52 µM and 60 µM.
`c1cc(CN2CCCNCCNCCCNCC2)ccc1CN1CCCNCCNCCCNCC1` [AMD3100]: the “inhibition of Nef-M1 induced MMD” value at CXCR4 was “inhibited”.
Still for that read-out and setting: then `Cc1cn([C@H]2C[C@H](N=[N+]=[N-])[C@@H](CO)O2)c(=O)[nH]c1=O` [AZT], with “inactive”.
With `Clc1ccc(Cc2nc(CN3CCN(Cc4ccccn4)CC3)cs2)cc1` [Compound 1], the 50% inhibitory concentration (IC50) in the data set with HIV-1 IIIB (Human immunodeficiency virus 1, IIIB, MAGI, value stated for both tropisms, read-out: IC50 against T tropic HIV in MAGI assay) was around 20 µM; with HIV-1 Ba-L (MAGI, value stated for both tropisms, read-out: IC50 against M tropic HIV in MAGI assay) it was around 20 µM.
For `Cc1ccc(-c2ccc3c(c2)C=C(C(=O)Nc2ccc(C[N+](C)(C)C4CCOCC4)cc2)CCC3)cc1.[Cl-]` [TAK-779, reference compound], the “inhibition of JRFL envelope / HeLa-C14 cell-cell fusion” value at CCR5 is “inhibited fusion”.
For `Clc1cnccc1CN1CCC(c2[nH]ncc2Cc2ccccc2)CC1` [drawing 40], the IC50 in the data set on HIV-1 IIIB (setting [2]) worked out at 0.1 µM; with HIV-1 Ba-L (setting [3]), 0.2 µM; in data set [1] (Table 3), 10 µM.
The matching figures for `Clc1cc(CN2CCC(c3[nH]ncc3Cc3ccccc3)CC2)ccn1` [drawing 41]: 0.2 µM, 0.3 µM and 10 µM.
The matching figures for `c1ccc(Cc2cn[nH]c2C2CCN(Cc3cccc4ccccc34)CC2)cc1` [drawing 49]: 7 µM, 8 µM and 20 µM.
For `c1ccc(Cc2cn[nH]c2C2CCN(Cc3ccc4ccccc4c3)CC2)cc1` [drawing 50], the half-inhibitory concentration (IC50) in the data set on HIV-1 IIIB (setting [2]) turned out to be 4 µM; in the data set on HIV-1 Ba-L (setting [3]), 4 µM; in data set [1] (Table 3), 23 µM.
Regarding `c1ccc(Cc2cn[nH]c2C2CCN(Cc3ccc4ccccc4c3)CC2)cc1` [drawing 85, 4-(4-benzyl-1H-pyrazol-3-yl)-1-(naphthalen-2-ylmethyl)piperidine], the figures for the IC50 in the data set with HIV-1 IIIB (setting [4]) and in the data set on HIV-1 Ba-L (setting [5]) were 4.03 µM and 4.47 µM, respectively. In the data set “MAGI toxicity”, this compound returned a CC50 of 16.8 µM.
The matching figures for `c1ccc(Cc2cn[nH]c2C2CCN(Cc3cccc4ccccc34)CC2)cc1` [drawing 86, 4-(4-benzyl-1H-pyrazol-3-yl)-1-(naphthalen-1-ylmethyl)piperidine]: 6.79 µM, 7.63 µM and 17.9 µM.
On to `Clc1cnccc1CN1CCC(c2[nH]ncc2Cc2ccccc2)CC1` [drawing 92, 4-((4-(4-benzyl-1H-pyrazol-3-yl)piperidin-1-yl)methyl)-3-chloropyridine], for which the 50% inhibitory concentration (IC50) with HIV-1 IIIB (setting [4]) came to 0.21 µM; with HIV-1 Ba-L (setting [5]), 0.14 µM. In the data set “MAGI toxicity”, this compound returned a CC50 of 67 µM.
The matching figures for `Clc1cc(CN2CCC(c3[nH]ncc3Cc3ccccc3)CC2)ccn1` [drawing 93, 4-((4-(4-benzyl-1H-pyrazol-3-yl)piperidin-1-yl)methyl)-2-chloropyridine]: 0.28 µM, 0.17 µM and 34 µM.
Turning to maraviroc, at CXCR4, the “inhibition of Nef-M1 induced MMD” value is “inactive”.
